In publication PMC10455244, “Alpha-Mangostin: A Potent Inhibitor of TRPV3 and Pro-Inflammatory Cytokine Secretion in Keratinocytes” (International Journal of Molecular Sciences, 2023):

Key:
TRPV4 = biological target: T1, TRPV4 (Homo sapiens, UniProt Q9HBA0); assay: Whole-cell patch-clamp, GSK101-activated TRPV4 current in transfected HEK 293T cells; assay type: cell-based
T1 construct: host or cells: HEK 293T (transient transfection)
Experimental: Next, we examined the impact of alpha-mangostin on other TRP channels. TRPV4- and TRPA1 trasfected HEK 293T were activated using 300 nM GSK-1016790A (GSK101) and 100 µM allyl isothiocyanate (AITC), respectively. […] The dose–response curves were obtained by applying various concentrations of alpha-mangostin (Figure 2C).
Figure 2 Alpha-mangostin (α-MG) inhibited the TRPV3 current more effectively than other TRP channels. (A) Representative I–V curves from whole-cell recordings illustrate the inhibitory effect of 0.3 µM alpha-mangostin on TRPV4 and TRPA1 channels (GSK101: GSK-1016790A, a TRPV4 agonist; RR: ruthenium red, a TRP inhibitor; AITC: allyl isothiocyanate, a TRPA1 agonist; A967: A-967079, a TRPA1 inhibitor). Currents were elicited with ramp pulses from −100 to +100 mV over 1 s, which were repetitively applied every 20 s; the holding potential was set at 0 mV. (B) Summary of the inhibition percentage after 0.3 µM alpha-mangostin treatment at −100 mV. […]
In the whole-cell configuration, voltage ramps from −100 to +100 mV over 1 s were applied every 20 s and the holding potential was set at 0 mV. Sampling at 10 kHz and low-pass filtering at 5 kHz (w-c) were applied for all recorded currents. Recorded data were analyzed using Clampfit ver. […]

IL-8 = assay: ELISA, carvacrol-induced IL-8 release in NHEK; assay type: cell-based, human; conditions: 1 µM with 300 µM carvacrol, 24 h
From the text: Constitutive activation of TRPV3 due to continuous stimulation or the presence of Olmsted mutations causes noticeable skin inflammation due to the increased secretion of pro-inflammatory cytokines from the keratinocytes. Besides, in atopic dermatitis (AD), cytokine release from keratinocytes contributes to the inflammatory environment, which drives many characteristic AD symptoms. Therefore, we determined the effect of TRPV3 activation on cytokine release instead of TRPV3 expression and evaluated whether alpha-mangostin suppressed TRPV3-mediated cytokine secretion in normal human keratinocytes. The levels of secreted cytokines (interleukin (IL)-6, IL-8, and tumor necrosis factor-alpha (TNF-α)) were measured using enzyme-linked Immunosorbent assay (ELISA) kits due to their high sensitivity and quantitation ability. The cells were induced with 300 µM carvacrol, with or without 1 µM alpha-mangostin, and 10 µM 74a.
Figure 5 Alpha-mangostin (α-MG) inhibited carvacrol-induced cytokine release in NHEK cells and rescued carvacrol-induced cell death. (A) Alpha-mangostin inhibited the carvacrol-induced release of IL-8 and IL-6 in NHEK. Cells were induced by 300 µM carvacrol with or without either 1 µM alpha-mangostin or 10 µM 74a for 24 h before the ELISA assay. (B) Alpha-mangostin reduced cell death caused by carvacrol in human keratinocytes. […]

T1 sequence (Q9HBA0 whole entry, species assumed): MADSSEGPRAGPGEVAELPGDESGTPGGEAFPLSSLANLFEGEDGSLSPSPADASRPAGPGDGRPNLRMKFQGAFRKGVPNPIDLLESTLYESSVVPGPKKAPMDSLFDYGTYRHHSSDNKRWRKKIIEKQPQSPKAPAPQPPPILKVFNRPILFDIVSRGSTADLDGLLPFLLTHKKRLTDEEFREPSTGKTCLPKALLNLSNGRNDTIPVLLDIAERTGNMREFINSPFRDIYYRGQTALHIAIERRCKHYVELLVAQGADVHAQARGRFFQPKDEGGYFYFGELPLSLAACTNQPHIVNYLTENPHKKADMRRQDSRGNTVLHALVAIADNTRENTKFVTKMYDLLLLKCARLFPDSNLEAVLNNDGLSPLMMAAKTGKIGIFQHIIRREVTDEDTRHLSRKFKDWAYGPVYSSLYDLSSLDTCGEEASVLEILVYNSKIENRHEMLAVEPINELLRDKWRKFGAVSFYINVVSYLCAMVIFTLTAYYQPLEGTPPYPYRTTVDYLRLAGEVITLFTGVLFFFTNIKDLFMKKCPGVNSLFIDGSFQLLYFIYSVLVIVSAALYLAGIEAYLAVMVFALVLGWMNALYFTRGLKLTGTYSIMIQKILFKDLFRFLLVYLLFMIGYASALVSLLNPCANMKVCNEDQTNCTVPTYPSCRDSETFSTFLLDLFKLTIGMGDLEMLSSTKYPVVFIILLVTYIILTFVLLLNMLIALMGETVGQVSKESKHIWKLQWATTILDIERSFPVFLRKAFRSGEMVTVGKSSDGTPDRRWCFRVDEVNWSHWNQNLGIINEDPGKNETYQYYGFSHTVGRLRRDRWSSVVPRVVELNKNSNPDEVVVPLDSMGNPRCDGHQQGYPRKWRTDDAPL

`COc1c(O)cc2oc3cc(O)c(CC=C(C)C)c(O)c3c(=O)c2c1CC=C(C)C` [Alpha-mangostin] was tested, and the inhibition at 0.3 µM (TRPV4; HEK-293T, 0.3 µM, 300 nM GSK101, −100 mV, read-out: Inhibition percentage of TRPV4 current) was 16.1%, the IC50 (TRPV4; transfected HEK 293T, 300 nM GSK101, read-out: IC50, inhibition of TRPV4 current) was 8.47 ± 1.72 µM and the “Effect on IL-8 levels” value (IL-8) was “drastically attenuated”.
